# Legend:
# [1] = tested on: Dirofilaria immitis third-stage larvae; experiment: In vitro assay 4: Dirofilaria immitis (DIROIM L4), motility of larvae; details: 72 h
# [2] = log P by HPLC on reversed phase columns (Method L0; [a] acidic, [b] neutral range)
# Experimental: Calibration was done with straight-chain alkan-2-ones (with 3 to 16 carbon atoms) with known log P values (measurement of log P values using retention times with linear interpolation between successive alkanones). Lambda-max-values were determined using UV-spectra from 200 nm to 400 nm and the peak values of the chromatographic signals.
# [3] = target: C. elegans Slo-1a (Caenorhabditis elegans, UniProt Q95V25); experiment: In vitro assay 1: C. elegans Slo-1a, action at a recombinant C. elegans CHO cell line (membrane potential measurement)
# Experimental: In Vitro Assay 1: C. Eleqans Slo-La—Action at a Recombinant C. elegans Cell Line
# Cells were cultured at 37° C. and 5% CO2 in MEMalpha with Gutamax I (Invitrogen, Nr.: 32571), supplemented with 10% (v/v) heat inactivated fetal bovine serum (Invitrogen, Nr.: 10500), G418 (1 mg/ml, Invitrogen, Nr.: 10131). Cells were detached using Accutase (Sigma, Nr.: A6964).
# Membrane Potential Measurements
# Laboratory compound testing was performed on 384-well microtiter plates (MTPs, Greiner, Nr.: 781092). 8000 cells/well were plated onto 384-well MTPs and cultured for 20 to 24 hours at 37° C. and 5% CO2. After removal of the cell culture medium, the cells were washed once with tyrode (150 mM NaCl, 0.3 mM KCl, 2 mM CaCl2, 1 mM MgCl2, 0.8 mM NaH2PO4, 5 mM Glucose, 28 mM Hepes, pH 7.4) and then loaded with the voltage sensitive dye of the Membrane Potential Assay Kit diluted in tyrode for 1 h at room temperature.
# After starting the measurement of fluorescence using a FLIPR Tetra (Molecular Devices, Exc. 510-545 nm, Emm. 565-625 nm), test compounds were added followed by the addition of KCl tyrode (final assay concentration: 70 mM KCl, 2 mM CaCl2, 1 mM MgCl2, 0.8 mM NaH2PO4, 5 mM Glucose, 28 mM Hepes, pH 7.4, including the voltage sensitive dye). The measurement was completed after 7 minutes.
# [4] = tested on: Dirofilaria immitis microfilariae; experiment: In vitro assay 3: Dirofilaria immitis microfilariae (DIROIM L1), motility; details: 72 h, reduction of motility vs negative control, 72 h incubation
# [5] = tested on: Litomosoides sigmodontis third-stage larvae; experiment: In vitro assay 7: Litomosoides sigmodontis L3 (LTMOSI), motility; details: 72 h, reduction of motility vs negative control, 72 h incubation
# C. elegans Slo-1a, sequence (Q95V25 whole entry): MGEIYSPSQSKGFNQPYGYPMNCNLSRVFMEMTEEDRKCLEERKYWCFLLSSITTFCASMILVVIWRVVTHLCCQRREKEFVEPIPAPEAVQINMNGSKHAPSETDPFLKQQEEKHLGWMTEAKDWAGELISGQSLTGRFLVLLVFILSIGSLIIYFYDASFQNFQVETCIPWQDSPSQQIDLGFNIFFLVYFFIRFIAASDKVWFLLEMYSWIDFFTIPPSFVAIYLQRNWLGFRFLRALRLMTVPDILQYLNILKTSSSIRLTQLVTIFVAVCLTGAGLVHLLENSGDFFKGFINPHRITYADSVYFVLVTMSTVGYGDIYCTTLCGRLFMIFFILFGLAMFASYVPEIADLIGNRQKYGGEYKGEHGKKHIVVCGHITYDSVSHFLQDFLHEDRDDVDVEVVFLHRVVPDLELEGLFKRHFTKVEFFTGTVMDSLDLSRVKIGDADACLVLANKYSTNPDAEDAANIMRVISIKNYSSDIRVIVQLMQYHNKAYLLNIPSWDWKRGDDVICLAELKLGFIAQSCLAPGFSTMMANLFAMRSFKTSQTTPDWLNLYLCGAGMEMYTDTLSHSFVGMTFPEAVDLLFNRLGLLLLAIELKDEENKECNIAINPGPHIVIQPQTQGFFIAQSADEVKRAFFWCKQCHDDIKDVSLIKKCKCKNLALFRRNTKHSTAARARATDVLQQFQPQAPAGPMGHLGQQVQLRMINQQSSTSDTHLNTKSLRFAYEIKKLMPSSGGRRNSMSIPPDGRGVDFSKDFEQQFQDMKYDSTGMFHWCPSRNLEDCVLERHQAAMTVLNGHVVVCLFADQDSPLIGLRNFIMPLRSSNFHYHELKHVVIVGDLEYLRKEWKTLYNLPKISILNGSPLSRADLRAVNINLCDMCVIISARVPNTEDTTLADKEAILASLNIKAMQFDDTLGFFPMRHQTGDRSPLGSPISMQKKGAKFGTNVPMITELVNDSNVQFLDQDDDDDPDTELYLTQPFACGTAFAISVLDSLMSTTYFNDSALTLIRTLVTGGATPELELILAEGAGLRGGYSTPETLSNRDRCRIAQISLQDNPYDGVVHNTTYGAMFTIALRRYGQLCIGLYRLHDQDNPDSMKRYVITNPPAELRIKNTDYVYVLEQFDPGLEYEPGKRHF
SMILES,EC50 [1] [µg/mL],chromatographic logP [2],EC50 [3] [nM],EC50 [4] [µg/mL],EC50 [5] [µg/mL]
Cc1nn2c(C(C)C)c(C(=O)N[C@H]3CCc4ccccc43)cnc2c1-c1cccc(C(F)(F)F)c1 [Example 4],< 1,5.3,31.6,< 1,–
Cc1nn2c(C(C)C)c(C(=O)N[C@H]3CCCc4ccccc43)cnc2c1-c1cccc(Cl)c1 [Example 45],< 1,5.51,50.1,< 0.1,< 0.1
CC(C)c1c(C(=O)N[C@H]2CCc3ccccc32)cnc2c(-c3ccccc3Cl)c(Cl)nn12 [Example 79],< 0.1,4.79,20,< 0.1,< 0.1
Cc1nn2c(C(C)C)c(C(=O)N[C@H]3CCOc4ccccc43)cnc2c1-c1ccccc1F [Example 92],< 0.1,4.18,6.31,< 0.1,< 0.1
Cc1nn2c(C(C)C)c(C(=O)N[C@H]3CCc4ccccc43)cnc2c1-c1ccccc1F [Example 95],< 0.1,4.41,6.31,< 0.1,< 0.1
Cc1nn2c(C(C)C)c(C(=O)N[C@H]3CCCc4ccccc43)cnc2c1-c1c(F)cccc1F [Example 98],< 0.1,4.67,12.6,< 0.1,< 0.1
Cc1nn2c(C(C)C)c(C(=O)N[C@H]3CCc4ccccc43)cnc2c1-c1c(F)cccc1F [Example 99],< 0.1,4.37,10,< 0.1,< 0.1
Cc1nn2c(C(C)C)c(C(=O)N[C@H]3CCOc4ccccc43)cnc2c1-c1ccc(F)c(F)c1 [Example 100],< 0.1,4.56,7.94,< 0.1,< 0.1
Cc1nn2c(C(C)C)c(C(=O)N[C@H]3CCc4ccccc43)cnc2c1-c1ccc(F)c(F)c1 [Example 103],< 0.1,4.82,20,< 0.1,< 0.1
Cc1nn2c(C(C)C)c(C(=O)N[C@H]3CCOc4ccccc43)cnc2c1-c1ccccc1Cl [Example 107],< 0.1,4.37,5.01,< 0.1,< 0.1
Cc1nn2c(C(C)C)c(C(=O)N[C@H]3CCc4ccccc43)cnc2c1-c1cc(F)ccc1F [Example 116],< 0.1,4.59,10,< 0.1,< 0.1
Cc1nn2c(C(C)C)c(C(=O)N[C@H]3CCOc4ccccc43)cnc2c1-c1cccc(Cl)c1 [Example 117],< 0.1,4.87,5.01,< 0.1,< 0.1
Cc1nn2c(C(C)C)c(C(=O)N[C@H]3CCOc4ccccc43)cnc2c1-c1cc(F)ccc1F [Example 121],< 0.1,4.41,6.31,< 0.1,< 0.1
Cc1nn2c(C(C)C)c(C(=O)N[C@H]3CCCc4ccccc43)cnc2c1-c1c(F)cccc1Cl [Example 131],< 0.1,5.02,7.94,< 0.1,< 0.1
Cc1nn2c(C(C)C)c(C(=O)N[C@H]3CCc4ccccc43)cnc2c1-c1cccc(F)c1Cl [Example 165],< 0.1,4.74,2,< 0.1,–
Cc1nn2c(C(C)C)c(C(=O)N[C@H]3CCCc4ccccc43)cnc2c1-c1cc(Cl)ccc1Cl [Example 172],< 0.1,5.64,10,< 0.1,–
Cc1nn2c(C(C)C)c(C(=O)N[C@H]3CCc4ccccc43)cnc2c1-c1cccc(Cl)c1 [Example 287],–,5.19,15.8,< 1,< 0.1
COc1cccc(-c2c(C)nn3c(C(C)C)c(C(=O)N[C@H]4CCc5ccccc54)cnc23)c1 [Example 289],–,4.51,15.8,< 1,< 0.1
"Cc1nn2c(C(C)C)c(C(=O)N[C@H]3CCc4ccccc43)cnc2c1-c1cccc(F)c1 [Example 290, (S)—N-(2,3-Dihydro-1H-inden-1-yl)-3-(3-fluorophenyl)-7-isopropyl-2-methylpyrazolo[1,5-a]pyrimidine-6-carboxamide]",–,4.73,15.8,< 1,< 1
COCc1cccc(-c2c(C)nn3c(C(C)C)c(C(=O)N[C@H]4CCCc5ccccc54)cnc23)c1 [Example 344],< 1,4.74,7.94,< 1,–
Cc1nn2c(C3CC3)c(C(=O)N[C@H]3CCc4ccccc43)cnc2c1-c1cccc(N(C)C)c1 [Example 348],< 1,2.98,3.98,< 1,–
COCc1cccc(-c2c(C)nn3c(C4CC4)c(C(=O)N[C@H]4CCc5ccccc54)cnc23)c1 [Example 350],< 1,3.65,10,< 0.1,–

SMILES,EC50 [1] [µg/mL],chromatographic logP [2],EC50 [3] [nM],EC50 [4] [µg/mL],EC50 [5] [µg/mL]
Cc1nn2c(C3CC3)c(C(=O)N[C@H]3CCc4ccccc43)cnc2c1-c1ccc(F)c(F)c1 [Example 358],< 1,4.1,12.6,< 1,–
Cc1nn2c(C(C)C)c(C(=O)N[C@H]3CCc4ccccc43)cnc2c1-c1cccc(N2CC(F)(F)C2)c1 [Example 364],< 1,4.89,10,< 1,–
CC(C)c1c(C(=O)N[C@H]2CCc3ccccc32)cnc2c(-c3c(F)cccc3F)c(C(F)F)nn12 [Example 434],< 0.1,4.23,7.94,< 0.1,–
Cc1nn2c(C3CC3)c(C(=O)N[C@H]3CCOc4ccccc43)cnc2c1-c1c(F)cccc1F [Example 445],< 0.1,3.43,2,< 0.1,–
Cc1nn2c(C3CC3)c(C(=O)N[C@H]3CCOc4ccccc43)cnc2c1-c1cc(F)ccc1F [Example 448],< 0.1,3.61,3.16,< 0.1,–
Cc1nn2c(C3CC3)c(C(=O)N[C@H]3CCOc4ccccc43)cnc2c1-c1ccccc1F [Example 450],< 0.1,3.45,3.16,< 0.1,–
Cc1nn2c(C3CC3)c(C(=O)N[C@H]3CCOc4ccccc43)cnc2c1-c1cccc(F)c1 [Example 456],–,3.71,6.31,< 0.1,–
Cc1nn2c(C3CC3)c(C(=O)N[C@H]3CCc4ccccc43)cnc2c1-c1cccc(N2CC(C#N)C2)c1 [Example 460],–,3.44,39.8,< 10,–
Cc1nn2c(C3CC3)c(C(=O)N[C@H]3CCOc4ccccc43)cnc2c1-c1cccc(OC(F)(F)F)c1 [Example 462],–,4.47,6.31,< 0.1,–
Cc1nn2c(C3CC3)c(C(=O)N[C@H]3CCOc4ccccc43)cnc2c1-c1ccc(F)cc1 [Example 463],< 0.1,3.62,7.94,< 0.1,–
Cc1nn2c(C3CC3)c(C(=O)N[C@H]3CCOc4ccccc43)cnc2c1-c1cccc(N2CC(F)(F)C2)c1 [Example 464],–,3.92,3.16,< 0.1,–
Cc1nn2c(C3CC3)c(C(=O)N[C@H]3CCc4ccccc43)cnc2c1-c1cccc(N2CC(F)C2)c1 [Example 466],–,3.85,10,< 10,–
Cc1nn2c(C3CC3)c(C(=O)N[C@H]3CCOc4ccccc43)cnc2c1-c1cc(Cl)cc(Cl)c1 [Example 469],–,4.96,15.8,< 0.1,–
Cc1nn2c(C3CC3)c(C(=O)N[C@H]3CCOc4ccccc43)cnc2c1-c1ccc(F)c(F)c1 [Example 471],–,3.86,3.98,< 0.1,–
Cc1nn2c(C3CC3)c(C(=O)N[C@H]3CCOc4ccccc43)cnc2c1-c1cc(Cl)c(F)c(Cl)c1 [Example 476],–,4.95,6.31,< 1,–
Cc1nn2c(N(C)C)c(C(=O)N[C@H]3CCOc4ccccc43)cnc2c1-c1cc(Cl)cc(Cl)c1 [Example 520],–,4.92,7.94,< 0.1,–
Cc1nn2c(N3CCOCC3)c(C(=O)N[C@H]3CCOc4ccccc43)cnc2c1-c1cccc(Cl)c1F [Example 524],< 0.1,4.69,1.26,< 0.1,–
Cc1nn2c(C3CC3)c(C(=O)N[C@H]3CCOc4ccccc43)cnc2c1-c1ccc(Cl)nc1 [Example 525],–,2.96,79.4,< 10,–
Cc1nn2c(C3CC3)c(C(=O)N[C@H]3CCOc4ccccc43)cnc2c1-c1ccnc(N2CCOCC2)c1F [Example 527],–,2.96,31.6,< 10,–
CC(=O)Nc1cc(-c2c(C)nn3c(C4CC4)c(C(=O)N[C@H]4CCOc5ccccc54)cnc23)ccn1 [Example 528],–,1.69,1260,< 10,–
Cc1ccccc1-c1c(C)nn2c(N3CCOCC3)c(C(=O)N[C@H]3CCOc4ccccc43)cnc12 [Example 536],–,4.18,5.01,< 0.1,–
Cc1nn2c(C3CC3)c(C(=O)N[C@H]3CCOc4ccccc43)cnc2c1-c1cc(F)cc(F)c1 [Example 537],–,3.99,5.01,< 0.1,–
